Data published in patent US8658677B2, “Pyridyl-2-methylamino compounds, compositions and uses thereof” (Aria Neurosciences Inc., priority 2011, dated 2014).
Entries after “also recorded” stand apart in the source; their conditions may differ.

Key:
[1] = molecular target: T1, Aβ40 (Homo sapiens, UniProt P05067); assay: Thioflavin-T fibrillization assay; format: biochemical
T1 construct: host or cells: chemical solid-phase peptide synthesis (no expression host)
Text: Synthetic Aβ 1-40 peptide (sequence: […]) was synthesized at the W.M. Keck Foundation Facility (Yale University, New Haven, Conn.) by solid-phase technique on a p-methyl-benzhydrylamine resin, using a Biosearch SAM 2 synthesizer and purified by high performance liquid chromatography (HPLC) with the use of a reverse-phase support medium (Delta-Bondapak) on a 0.78×30 cm column with a 0-66% linear gradient of acetonitrile in 0.1% (v/v) trifluroacetic acid, as previously described. The peptide content of the eluate was monitored by measurement of its absorption at 214 nm. To verify the sequence and purity of the peptide, linear, time-of-flight mass spectrometry was performed at the Skirball Institute at New York University. For aggregation studies the peptide was diluted in 1,1,1,3,3,3-hexafluoro-2-propanol (HFIP; Sigma St. Loius, Mo.) at a concentration of 10 mM/mL, aliquoted and lyophilized. HFIP treatment renders peptides monomeric with minimal β-sheet content. Lyophilized peptides were stored at −80° C. and resuspended immediately prior to each experiment in the appropriate diluent.
The effect of compounds of the present invention on aggregation of Aβ 1-40 peptide was tested using a Thioflavin-T assay according to previously published methods. Aggregation of Aβ 1-40 incubated alone was measured for comparison. Aβ 1-40 was HFIP treated (as described above) and reconstituted in 100 mM Tris buffer (pH 7.4) to obtain a 100 μmol/L concentration. Stock of investigational compounds (50 mmol/L stock diluted in DMSO) was added to Aβ 1-40 to achieve of a concentration 10 or 100 μmol/L of investigational compound in 100 μmol/L of Aβ 1-40. All incubations were performed over a period of 7 days at 37° C. and the incubation mixture was slowly mixed for 6 hours every 24 h. At the conclusion of the experiment samples containing 15 μg of Aβ 1-40 with and without investigational compounds were added to 1 mL of 50 mM glycine, pH 9.2 and 2 μM of Thioflavin-T (Sigma Chemical, Co.; St. Louis, Mo.). Fluorescence was measured at an excitation of 435 nm and an emission of 485 nm in a Perkin-Elmer LS-50B fluorescence spectrophotometer (Perkin Elmer Instruments, Shelton, Conn.). A time scan of fluorescence was performed and three values after the decay reached a plateau (280, 290, 300 seconds) were averaged. The background fluorescence of 40 μL of Tris buffer added to 2 μM/L of Thioflavin-T solution was subtracted. Samples were run in duplicate. Differences in amount of fibrils formed in the presence of investigational compounds were evaluated by means of one-way ANOVA followed by a Dunnet post-hoc test using Statistica (version 6.1, StatSoft Inc., OK).
[…] monomerized synthetic Aβ40 was incubated in 0.1M Tris pH 7.0, T=37° C. for 8 days in the presence of 0-100 μM concentration of compounds. […] An arrow indicates Aβ monomers clustered in ill developed protofibril. (C) Oligomerization assay. ARN4261 and ARN4224 reduced the amount of Aβ oligomers by 78% and 74%, respectively p<0.001. A compound 69b (GKLVFNmgA) was used as a positive control. 69b is homologous to Aβ sequence 17-21 and contains N-methyl glycine (Nmg), which renders it capable of anti-fibrillization and anti-oligomerization effect. (D) Principle of oligomerization assay. 100 μM Aβ40 was aggregated alone or with the addition of 10 μM of tested compounds [1:10 compound: Ab ratio] for 24 h in conditions promoting oligomers assembly, i.e., DMEM/F-12 medium+0.2% SDS, T=4° C. Prior to SDS-PAGE in non-reducing conditions samples were treated with glutaraldehyde. A strong smear of Aβ oligomers is seen between 37 and 70 KDa markers (arrows) in lane 2, and a dense band below the 25 KDa marker reflects Aβ monomers non-dissociated by 10% polyacrylamide gel. No oligomers above 37 KDa marker are seen in lane 1 containing only Aβ monomers run as a control. […] (E) TEM of Aβ oligomers. […] Yellow arrowhead indicates smaller oligomers.

[2] = test system: Aβ40; assay: Secretion of Aβ40 by 751APPSW CHO cells (sandwich ELISA); format: cell-based; settings: 48 hr; for Emax: read-out: EMAX of Aβ40 production inhibition; for IC50: read-out: IC50% of Aβ40 production
Method: (§1) In addition to studying the effect of ARN4261 and ARN2966 on Aβ oligomerization and fibrillization, we have explored their properties in respect to the modulation of Aβ production using CHO clones stably transfected with WT human APP751 and double Swedish APP751 mutant (KM670/671NL). The results in FIGS. 3(A) and 3(B) show inhibitory effect of ARN4261 and ARN2966 on secretion of Aβ40 and Aβ42 by 751APPSW CHO cells exposed to ARN compounds for 48 hr. Values are expressed as % of Aβ40 and Aβ42 levels in conditioned media (CM) of untreated cells. FIG. 3(C) Concentrations of Aβ40 and Aβ42 in 751APPSWCHO cell CM under increasing concentrations of ARN2966. 751APPSWCHO cells secrete Aβ40 and Aβ42 in proportions 9:1, akin to the proportions of Aβ peptides produced by neurons. […] Aβ40 and Aβ42 levels were determined using sandwich ELISA where C-terminal specific anti Aβ40 and Aβ42 mAbs were used as capture Abs and biotinylated 4G8 as the detection Ab. […] We also confirmed that ARN2966 inhibited secretion of Aβ by primary neuronal cultures derived from Tg2576 AD Tg mice.

[3] = test system: Aβ42; assay: Secretion of Aβ42 by 751APPSW CHO cells (sandwich ELISA); format: cell-based; settings: 48 hr; for Emax: read-out: EMAX of Aβ42 production inhibition; for IC50: read-out: IC50% of Aβ42 production
Method: as §1

[4] = test system: APP; assay: APP, C99, C83 and sAPP levels in 751APPSW CHO cells (immunoblot, immunostaining); format: cell-based, human
[5] = test system: APP mRNA; assay: APP mRNA level in 751APPSW CHO cells; format: cell-based, human
Method: D. APP was immunoprecipitated with 22C11 mAb against its N-terminus. Representative radiographs (B) and densitometric results averaged from three independent experiments are shown (A). […] Two sets of experiments were conducted using either actin or GAPDH as housekeeping genes.

T1 sequence (P05067 672-711): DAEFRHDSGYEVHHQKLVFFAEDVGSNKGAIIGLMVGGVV

| Structure (SMILES) | behaviour in anti-Aβ aggregation assays ([1]; compared with ARN4261) | Emax [2] | IC50 [2] | Emax [3] | IC50 [3] | anti-APP immunostaining with 22C11 mAb ([4]; 751APPSW CHO cells) | concentrations at which reduction in APP FL level is seen ([4]; 751APPSW CHO clone) | level of APP FL, C99 and C83 in cell lysates ([4]; 751APPSW CHO clone) | sAPP (sAPPα and total sAPP stub) in conditioned media ([4]; 751APPSW CHO clone) | level of β-actin ([4]; 751APPSW CHO clone, increasing concentration) | APP mRNA level [5] | EC50 ([1]; 100 μM HFIP monomerized synthetic Aβ40, 0.1M Tris pH 7.0, 37° C., 8 days, 0-100 μM compound, read-out: EC50 of fibril reduction) | Emax ([1]; pH 7, read-out: EMAX (% of maximal fibril reduction)) | TEM analysis of Aβ fibrils ([1]; transmission electron microscopy) |
| --- | --- | --- | --- | --- | --- | --- | --- | --- | --- | --- | --- | --- | --- | --- |
| Oc1ccccc1NCc1ccccn1 [ARN2966, 2-[(pyridine-2-ylmethyl)-amino]-phenol] | behaves comparably to ARN4261 | 97 ± 0.3% | 0.81 µM | 84.5% | 5.53 µM | reduced without evidence of staining redistribution; also recorded: Reduced anti-APP staining | ≥ 10 µM | reduce the level of full length APP (APP FL) and both C99 and C83 APP stubs; also recorded: reduced levels of full length APP (APP FL) and C99 and C83 APP stubs | reduced levels | no apparent change | No change; also recorded: lack of substantial effect | – | – | – |
| Oc1ccccc1N=Cc1ccccn1 [ARN4261, 2-(Pyridin-2-ylmethyleneamino)-phenol] | – | 97.4 ± 0.25% | 0.82 µM | 98.9 ± 0.4% | 6.54 µM | – | – | reduce the level of full length APP (APP FL) and both C99 and C83 APP stubs; also recorded: reduced levels of full length APP (APP FL) and C99 and C83 APP stubs | – | – | lack of substantial effect | 16 µM | 88% | markedly reduced density and length of Aβ fibrils |
